Patent US20210275657A1, “NEOANTIGENS AND USES THEREOF” (BioNTech US Inc., priority 2018, published 2021)
Where two headings read alike, the source gives them in different places. Where a SMILES comes first, the peptide text is derived from it. Where no end group is shown, it is not given here.

What was measured:
indicated HLA alleles [1] = assay: Stability of mutant EGFR neopeptides with the HLA alleles; type: binding, human; settings: EGFR_T790M
Procedure: (§1) Multiple peptides containing neoepitopes in the table below were either expressed or loaded onto antigen presenting cells. Mass spectrometry was then performed and the affinity of the neoepitopes for indicated HLA alleles were determined, and the stability of the neoepitopes with the HLA alleles were determined.

indicated HLA alleles [2] = assay: Stability of mutant BTK neopeptides with the HLA alleles; type: binding, human; settings: BTK_C481S
Procedure: as §1

[3] = for Solubility in […] SS in D5W w/ 4% DMSO: […] sodium succinate in D5W; for solubility: without DMSO; for Solubility in […] SS in D5W w/o DMSO / Solubility in Poly ICLC + […] SS in D5W w/o DMSO: no DMSO; for solubility in low SS: lower SS concentration ([…] SS/D5W)
Procedure: All buffers were prepared daily. […] Peptides were weighed into 15 mL or 50 mL conical tubes using a Mettler Toledo XP105 Delta Mass analytical balance and the actual gross weight was recorded and used to determine how much DMSO to obtain 50 mg/mL. The calculation is shown below:
DMSO (μL)=(Actual gross weight (mg)*264 μl)/(Target gross weight (mg)) Equation 4.
The stock was then diluted to 2 mg/mLL (1 part DMSO stock, 24 parts buffer) in the appropriate formulation buffer.
Peptides weights and percent content were calculated as described above and the appropriate buffer was added directly to the peptides. The target gross weight calculated using Eq. 3 and the volume of buffer used to obtain 2 mg/mL peptide was calculated using Equation 5.
Buffer (ml)=(Actual gross weight (mg)*6.6 mL)/(Target gross weight (mg)) Equation 5.
Peptides were further diluted 1:4 with buffer to obtain 0.4 mg/mL or, only when indicated, was buffer added directly to the dry peptide to obtain 0.4 mg/mL. In the latter case, Equation 6 to determine the appropriate volume to add.
Buffer (ml)=(Actual gross weight (mg)*33 mL)/(Target gross weight (mg)) Equation 6.
The peptides were dissolved by inverting the conical tubes and not by sonicating or vortexing them.
To pool 5 peptides, equal volume from each 2 mg/mL stock was combined to obtain 0.4 mg/mL of each peptide. In the case of pools with less than 5 peptides, equal volumes of the peptides were combined then the solution was diluted with the appropriate buffer to obtain 0.4 mg/mL of each peptide. The pools were inverted 3-5 times to mix. The formulated peptides were transferred to glass vials to visualize solubility. Photographs were taken every two hours to note any changes in appearance.
Pools were combined at a 3:1 ratio of peptide to polyICLC using 150 μL polyICLC with 450 μL peptide pool in a 2 mL glass vial. The solution was inverted 3-5 times to mix and photographs were taken every two hours for 6 hours to note any changes in appearance. All pH measurements were made using a Mettler Toledo inLab Micro pH meter, which was calibrated every day before use. 100 μL of the sample being analyzed was removed and added to a microcentrifuge tube to measure the pH. The sample was then discarded. Samples by UPLC-MS (Waters Acquity H-Class with an Acquity QDa mass spectrometer). A 2 μL injection of each sample was analyzed in duplicate using an 8 minute gradient from 10:90 solvent A:B to 50:50 solvent A:B (A:0.1% TFA/water, B: 0.1% TFA:acetonitrile).

CC[C@H](C)[C@H](N)C(=O)N[C@@H](CCSC)C(=O)N[C@@H](CCC(N)=O)C(=O)N[C@@H](CC(C)C)C(=O)N[C@@H](CCSC)C(=O)N1CCC[C@H]1C(=O)N[C@@H](Cc1ccccc1)C(=O)NCC(=O)N[C@@H](CS)C(=O)N[C@@H](CC(C)C)C(=O)O
Stability (1/2 hr) (indicated HLA alleles [1]; HLA A02.01): 0.5156 h
Stability (1/2 hr) (indicated HLA alleles [1]; HLA A24.02): 0 h
Stability (1/2 hr) (indicated HLA alleles [1]; HLA B08.01): 0 h

CSCC[C@H](N)C(=O)N[C@@H](C)C(=O)N[C@@H](CC(N)=O)C(=O)NCC(=O)N[C@@H](CO)C(=O)N[C@@H](CC(C)C)C(=O)N[C@@H](CC(C)C)C(=O)N[C@@H](CC(N)=O)C(=O)N[C@@H](Cc1ccc(O)cc1)C(=O)N[C@@H](CC(C)C)C(=O)O
Stability (1/2 hr) (indicated HLA alleles [2]; HLA A02.01): 0 h
Stability (1/2 hr) (indicated HLA alleles [2]; HLA B07.02): 0 h
Stability (1/2 hr) (indicated HLA alleles [2]; HLA B08.01): 0 h

CSCC[C@H](NC(=O)[C@H](CC(C)C)NC(=O)[C@H](CCC(N)=O)NC(=O)[C@@H](N)CCSC)C(=O)N1CCC[C@H]1C(=O)N[C@@H](Cc1ccccc1)C(=O)NCC(=O)N[C@@H](CS)C(=O)N[C@@H](CC(C)C)C(=O)O
Stability (1/2 hr) (indicated HLA alleles [1]; HLA A02.01): 0.3683 h
Stability (1/2 hr) (indicated HLA alleles [1]; HLA B07.02): 0 h
Stability (1/2 hr) (indicated HLA alleles [1]; HLA B08.01): 0 h

CSCC[C@H](NC(=O)[C@H](CC(C)C)NC(=O)[C@H](CCC(N)=O)NC(=O)[C@@H](N)CCSC)C(=O)N1CCC[C@H]1C(=O)N[C@@H](Cc1ccccc1)C(=O)NCC(=O)N[C@@H](CS)C(=O)N[C@@H](CC(C)C)C(=O)N[C@@H](CC(C)C)C(=O)O
Stability (1/2 hr) (indicated HLA alleles [1]; HLA A02.01): 0.3811 h
Stability (1/2 hr) (indicated HLA alleles [1]; HLA A24.02): 0 h
Stability (1/2 hr) (indicated HLA alleles [1]; HLA B08.01): 0 h

CC[C@H](C)[C@H](NC(=O)[C@H](CC(C)C)NC(=O)[C@@H](N)CCC(N)=O)C(=O)N[C@@H](CCSC)C(=O)N[C@@H](CCC(N)=O)C(=O)N[C@@H](CC(C)C)C(=O)N[C@@H](CCSC)C(=O)N1CCC[C@H]1C(=O)N[C@@H](Cc1ccccc1)C(=O)O
Stability (1/2 hr) (indicated HLA alleles [1]; HLA A02.01): 0.3407 h
Stability (1/2 hr) (indicated HLA alleles [1]; HLA A24.02): 0.3687 h
Stability (1/2 hr) (indicated HLA alleles [1]; HLA B08.01): 0 h

CC[C@H](C)[C@H](NC(=O)[C@H](CC(C)C)NC(=O)[C@H](CCC(N)=O)NC(=O)[C@@H](N)C(C)C)C(=O)N[C@@H](CCSC)C(=O)N[C@@H](CCC(N)=O)C(=O)N[C@@H](CC(C)C)C(=O)N[C@@H](CCSC)C(=O)N1CCC[C@H]1C(=O)N[C@@H](Cc1ccccc1)C(=O)O
Stability (1/2 hr) (indicated HLA alleles [1]; HLA A02.01): 0 h
Stability (1/2 hr) (indicated HLA alleles [1]; HLA A24.02): 0 h
Stability (1/2 hr) (indicated HLA alleles [1]; HLA B08.01): 0 h

CSCC[C@H](N)C(=O)N[C@@H](Cc1ccccc1)C(=O)N[C@@H](C)C(=O)N[C@H](C(=O)N[C@@H](CC(C)C)C(=O)N[C@@H](CCC(N)=O)C(=O)N[C@@H](CCCNC(=N)N)C(=O)N[C@@H](CO)C(=O)N[C@@H](CO)C(=O)N[C@@H](CC(C)C)C(=O)N[C@@H](Cc1c[nH]c2ccccc12)C(=O)N[C@@H](CS)C(=O)N[C@@H](CC(C)C)C(=O)N[C@@H](CS)C(=O)N[C@@H](CO)C(=O)N[C@@H](CC(N)=O)C(=O)N[C@@H](Cc1c[nH]cn1)C(=O)O)[C@@H](C)O [Peptide 12b] (H-MFATLQRSSLWCLCSNH-OH)
Solubility in 0.5 mM SS in D5W w/ 4% DMSO ([3]; 0.5 mM sodium succinate in D5W, 4% DMSO, no polyICLC): Yes
Solubility in […] SS in D5W w/ 4% DMSO ([3]; 4% DMSO, no polyICLC): Yes
Solubility in Poly ICLC + […] SS in D5W w/ 4% DMSO ([3]; with polyICLC, 4% DMSO): No

CC[C@H](C)[C@H](NC(=O)[C@H](CCCCN)NC(=O)[C@H](CO)NC(=O)[C@@H](N)CCC(=O)O)C(=O)N[C@@H](CCSC)C(=O)N[C@@H](Cc1ccccc1)C(=O)N[C@@H](C)C(=O)N[C@H](C(=O)N[C@@H](CC(C)C)C(=O)N[C@@H](CCC(N)=O)C(=O)N[C@@H](CCCNC(=N)N)C(=O)N[C@@H](CO)C(=O)N[C@@H](CO)C(=O)N[C@@H](CC(C)C)C(=O)O)[C@@H](C)O [Peptide L11i]
solubility ([3]; 0.4 mg/mL, D5W with all SS concentrations tested): soluble
solubility ([3]; 2 mg/mL in the higher SS concentration, D5W): Some precipitation
Solubility in […] SS in D5W w/o DMSO ([3]; no polyICLC): Yes
solubility in low SS [3]: soluble
Solubility in Poly ICLC + […] SS in D5W w/o DMSO ([3]; with polyICLC): Yes

CSCC[C@H](N)C(=O)N[C@@H](Cc1ccccc1)C(=O)N[C@@H](C)C(=O)N[C@H](C(=O)N[C@@H](CC(C)C)C(=O)N[C@@H](CCC(N)=O)C(=O)N[C@@H](CCCNC(=N)N)C(=O)N[C@@H](CO)C(=O)N[C@@H](CO)C(=O)N[C@@H](CC(C)C)C(=O)N[C@@H](Cc1c[nH]c2ccccc12)C(=O)N[C@@H](CS)C(=O)N[C@@H](CC(C)C)C(=O)N[C@@H](CS)C(=O)O)[C@@H](C)O [Peptide L12c]
Solubility in […] SS in D5W w/ 4% DMSO ([3]; 4% DMSO, no polyICLC): No

CC(C)C[C@H](NC(=O)[C@H](CS)NC(=O)[C@H](Cc1c[nH]c2ccccc12)NC(=O)[C@H](CC(C)C)NC(=O)[C@H](CO)NC(=O)[C@H](CO)NC(=O)[C@H](CCCNC(=N)N)NC(=O)[C@H](CCC(N)=O)NC(=O)[C@H](CC(C)C)NC(=O)[C@@H](N)[C@@H](C)O)C(=O)N[C@@H](CS)C(=O)N[C@@H](CO)C(=O)N[C@@H](CC(N)=O)C(=O)N[C@@H](Cc1c[nH]cn1)C(=O)O [Peptide L12d] (H-TLQRSSLWCLCSNH-OH)
solubility ([3]; 5 mM SS, after 6 hours): soluble
Solubility in […] SS in D5W w/o DMSO ([3]; no polyICLC): Yes
Solubility in […] SS in D5W w/ 4% DMSO ([3]; 4% DMSO, no polyICLC): Yes
Solubility in Poly ICLC + 5 mM SS in D5W w/ 4% DMSO ([3]; with polyICLC, 5 mM SS in D5W, 4% DMSO): Yes
Solubility in Poly ICLC + […] SS in D5W w/ 4% DMSO ([3]; with polyICLC, 4% DMSO): Yes

CC[C@H](C)[C@H](NC(=O)[C@H](CCCCN)NC(=O)[C@H](CO)NC(=O)[C@H](CCC(=O)O)NC(=O)[C@H](C)NC(=O)[C@H](CCCCN)NC(=O)[C@H](CC(C)C)NC(=O)[C@H](Cc1ccccc1)NC(=O)[C@H](CCSC)NC(=O)[C@H](Cc1ccc(O)cc1)NC(=O)CNC(=O)[C@H](CC(=O)O)NC(=O)[C@H](CCCNC(=N)N)NC(=O)[C@H](CCCCN)NC(=O)[C@@H]1CCCN1C(=O)[C@@H](N)CCCCN)C(=O)N[C@@H](CCSC)C(=O)N[C@@H](Cc1ccccc1)C(=O)N[C@@H](C)C(=O)N[C@H](C(=O)N[C@@H](CC(C)C)C(=O)N[C@@H](CCC(N)=O)C(=O)N[C@@H](CCCNC(=N)N)C(=O)N[C@@H](CO)C(=O)N[C@@H](CO)C(=O)N[C@@H](CC(C)C)C(=O)N[C@@H](Cc1c[nH]c2ccccc12)C(=O)N[C@@H](CS)C(=O)N[C@@H](CC(C)C)C(=O)N[C@@H](CS)C(=O)N[C@@H](CO)C(=O)N[C@@H](CC(N)=O)C(=O)N[C@@H](Cc1c[nH]cn1)C(=O)O)[C@@H](C)O [Peptide L15] (H-KPKRDGYMFLKAESKIMFATLQRSSLWCLCSNH-OH; N-terminus and C-terminus assumed)
solubility ([3]; 0.4 mg/mL in […] SS, after 6 hours): soluble
solubility in 5 mM SS ([3]; 5 mM SS (higher SS concentration) in D5W): not soluble
Solubility in […] SS in D5W w/o DMSO ([3]; no polyICLC): Yes
solubility in low SS [3]: soluble
Solubility in Poly ICLC + […] SS in D5W w/o DMSO ([3]; with polyICLC): Yes

DGYMFLKAESKIMFAT [Peptide L11e]
Solubility in […] SS in D5W w/ 4% DMSO ([3]; 4% DMSO, no polyICLC): No
